Reference: patent publication US11214594B2, “Antimicrobial peptide having synergistic antibacterial effect with antibiotics on multidrug resistant bacteria, and use thereof” (priority 2016, dated 2022)
Where a SMILES comes first, the peptide text is derived from it.

Key:
E. coli [1] = experiment: microbe, parasite or virus in culture; assay type: cell-based, Escherichia coli; settings: 16 h
In short: (§1)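 MIC read-out = lowest peptide level with no bacterial proliferation. Strains diluted in MH medium to 2×10^6 CFU; peptide twofold serial dilutions in MH added 1:1 in microtiter wells.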

MDREC 1229 [2] = experiment: microbe, parasite or virus in culture; assay type: cell-based, Escherichia coli
In short: as §1

MDREC 1238 = assay type: cell-based, Escherichia coli
In short: as §1

P. aeruginosa = experiment: microbe, parasite or virus in culture; assay type: cell-based, Pseudomonas aeruginosa
In short: as §1

MDRPA 2002 = assay type: cell-based, Pseudomonas aeruginosa
In short: as §1

MDRPA 2003 = assay type: cell-based, Pseudomonas aeruginosa
In short: as §1

MDRST 8007 = experiment: Minimal inhibitory concentration (MIC), single agent; assay type: cell-based, Salmonella typhimurium; settings: agent alone
In short: as §1

B. subtilis = experiment: microbe, parasite or virus in culture; assay type: cell-based, Bacillus subtilis
In short: as §1

S. epidermidis = experiment: microbe, parasite or virus in culture; assay type: cell-based, Staphylococcus epidermidis
In short: as §1

S. aureus = experiment: microbe, parasite or virus in culture; assay type: cell-based, Staphylococcus aureus
In short: as §1

MRSA 3114 = assay type: cell-based, Staphylococcus aureus; settings: 3114
In short: as §1

MRSA 3126 = assay type: cell-based, Staphylococcus aureus; settings: 3126
In short: as §1

E. coli [3] = experiment: MIC of antibiotic during combined treatment with antimicrobial peptide; assay type: cell-based, Escherichia coli; settings: for Antibiotic MIC, Erythromycin / Antibiotic MIC, Linezolid / Antibiotic MIC, Vancomycin: E. coli
In short: (§2)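 Read-out is the MIC of each combined solution, obtained from MH-medium dilutions of antibiotic added well by well, with a reversed-condition run as well.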

MDREC 1229 [4] = experiment: as above; assay type: cell-based, Escherichia coli
In short: (§3)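 Strains in MH medium at 2×10^6 CFU/ml were mixed with peptide diluted stepwise (2:1) from its MIC, then antibiotic dilutions in MH medium were added to give the antibiotic MIC. The reversed set-up, peptide titrated against fixed antibiotic, gave the peptide MIC.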

A. baumannii = experiment: as above; assay type: cell-based, Acinetobacter baumannii; settings: for Antibiotic MIC, Erythromycin / Antibiotic MIC, Linezolid / Antibiotic MIC, Vancomycin: A. baumannii
In short: as §2

MDRAB 12035 = experiment: as above; assay type: cell-based, Acinetobacter baumannii
In short: as §3

[5] = peptide treatment concentration 1 μg/ml
[6] = peptide treatment concentration 2 μg/ml
[7] = peptide treatment concentration 4 μg/ml
[8] = peptide treatment concentration 6 μg/ml
[9] = peptide treatment concentration 8 μg/ml
[10] = peptide treatment concentration 16 μg/ml
[11] = peptide treatment concentration 32 μg/ml
[12] = peptide treatment concentration 64 μg/ml
[13] = combined with peptide at 1 μg/ml
[14] = combined with peptide at 2 μg/ml
[15] = combined with peptide at 4 μg/ml
[16] = combined with peptide at 6 μg/ml
[17] = combined with peptide at 8 μg/ml
[18] = combined with peptide at 16 μg/ml
[19] = combined with peptide at 32 μg/ml
[20] = combined with peptide at 64 μg/ml

CC[C@H](C)[C@H](NC(=O)[C@H](CCCCN)NC(=O)[C@H](Cc1c[nH]c2ccccc12)NC(=O)[C@@H](N)CCCNC(=N)N)C(=O)N[C@@H](Cc1ccccc1)C(=O)N[C@@H](CCCCN)C(=O)N[C@@H](CCCCN)C(=O)N[C@H](C(=O)N1CCC[C@H]1C(=O)N[C@@H](CCCCN)C(=O)N[C@@H](Cc1ccccc1)C(=O)N[C@@H](CC(C)C)C(=O)N[C@@H](Cc1c[nH]cn1)C(=O)N[C@@H](CCC(=O)O)C(=O)N[C@@H](C)C(=O)N[C@@H](CCCCN)C(=O)N[C@@H](CCCCN)C(=O)N[C@@H](Cc1c[nH]c2ccccc12)C(N)=O)[C@@H](C)CC [PapMA-14, RWK IFK KIP KFL HEA KKW-NH2] (H-RWKIFKKIPKFLHEAKKW-NH2; N-terminus assumed)
0.5 µg/mL: Antibiotic MIC, Erythromycin (A. baumannii; [16]) | Antibiotic MIC, Linezolid (A. baumannii; [17]) | Erythromycin MIC during combined treatment with peptide (MDRAB 12035; [9])
2 µg/mL: Antibiotic MIC, Erythromycin (E. coli [3]; erythromycin combined with peptide at 4 μg/ml) | Antibiotic MIC, Linezolid (E. coli [3]; linezolid combined with peptide at 6 μg/ml) | Antibiotic MIC, Erythromycin (A. baumannii; [15]) | Antibiotic MIC, Vancomycin (A. baumannii; [16])
1 µg/mL: Antibiotic MIC, Erythromycin (E. coli [3]; erythromycin combined with peptide at 6 μg/ml) | Antibiotic MIC, Erythromycin (MDREC 1229 [4]; [9]) | Antibiotic MIC, Linezolid (A. baumannii; [16]) | Antibiotic MIC, Vancomycin (A. baumannii; [17]) | Erythromycin MIC during combined treatment with peptide (MDRAB 12035; [8]) | Linezolid MIC during combined treatment with peptide (MDRAB 12035; [9]) | Vancomycin MIC during combined treatment with peptide (MDRAB 12035; [9])
32 µg/mL: Antibiotic MIC, Erythromycin (E. coli [3]; erythromycin combined with peptide at 2 μg/ml) | Antibiotic MIC, Erythromycin (MDREC 1229 [4]; [6]) | Antibiotic MIC, Linezolid (MDREC 1229 [4]; [7]) | Antibiotic MIC, Vancomycin (MDREC 1229 [4]; [8]) | Antibiotic MIC, Linezolid (A. baumannii; [14])
128 µg/mL: Antibiotic MIC, Erythromycin (E. coli [3]; erythromycin combined with peptide at 1 μg/ml) | Antibiotic MIC, Linezolid (E. coli [3]; linezolid combined with peptide at 2 μg/ml) | Antibiotic MIC, Vancomycin (E. coli [3]; vancomycin combined with peptide at 2 μg/ml) | Antibiotic MIC, Erythromycin (MDREC 1229 [4]; [5]) | Antibiotic MIC, Linezolid (MDREC 1229 [4]; [6]) | Antibiotic MIC, Vancomycin (MDREC 1229 [4]; [7]) | Antibiotic MIC, Linezolid (A. baumannii; [13]) | Linezolid MIC during combined treatment with peptide (MDRAB 12035; [5])
0 µg/mL: Antibiotic MIC, Erythromycin (E. coli [3]; erythromycin combined with peptide at 8 μg/ml) | Antibiotic MIC, Erythromycin (E. coli [3]; erythromycin combined with peptide at 16 μg/ml) | Antibiotic MIC, Erythromycin (E. coli [3]; erythromycin combined with peptide at 32 μg/ml) | Antibiotic MIC, Erythromycin (E. coli [3]; erythromycin combined with peptide at 64 μg/ml) | Antibiotic MIC, Linezolid (E. coli [3]; linezolid combined with peptide at 8 μg/ml) | Antibiotic MIC, Linezolid (E. coli [3]; linezolid combined with peptide at 16 μg/ml) | Antibiotic MIC, Linezolid (E. coli [3]; linezolid combined with peptide at 32 μg/ml) | Antibiotic MIC, Linezolid (E. coli [3]; linezolid combined with peptide at 64 μg/ml) | Antibiotic MIC, Vancomycin (E. coli [3]; vancomycin combined with peptide at 8 μg/ml) | Antibiotic MIC, Vancomycin (E. coli [3]; vancomycin combined with peptide at 16 μg/ml) | Antibiotic MIC, Vancomycin (E. coli [3]; vancomycin combined with peptide at 32 μg/ml) | Antibiotic MIC, Vancomycin (E. coli [3]; vancomycin combined with peptide at 64 μg/ml) | Antibiotic MIC, Erythromycin (MDREC 1229 [4]; [10]) | Antibiotic MIC, Linezolid (MDREC 1229 [4]; [10]) | Antibiotic MIC, Vancomycin (MDREC 1229 [4]; [10]) | Antibiotic MIC, Erythromycin (MDREC 1229 [4]; [11]) | Antibiotic MIC, Linezolid (MDREC 1229 [4]; [11]) | Antibiotic MIC, Vancomycin (MDREC 1229 [4]; [11]) | Antibiotic MIC, Erythromycin (MDREC 1229 [4]; [12]) | Antibiotic MIC, Linezolid (MDREC 1229 [4]; [12]) | Antibiotic MIC, Vancomycin (MDREC 1229 [4]; [12]) | Antibiotic MIC, Erythromycin (A. baumannii; [18]) | Antibiotic MIC, Linezolid (A. baumannii; [18]) | Antibiotic MIC, Vancomycin (A. baumannii; [18]) | Antibiotic MIC, Erythromycin (A. baumannii; [19]) | Antibiotic MIC, Linezolid (A. baumannii; [19]) | Antibiotic MIC, Vancomycin (A. baumannii; [19]) | Antibiotic MIC, Erythromycin (A. baumannii; [20]) | Antibiotic MIC, Linezolid (A. baumannii; [20]) | Antibiotic MIC, Vancomycin (A. baumannii; [20]) | Erythromycin MIC during combined treatment with peptide (MDRAB 12035; [10]) | Linezolid MIC during combined treatment with peptide (MDRAB 12035; [10]) | Vancomycin MIC during combined treatment with peptide (MDRAB 12035; [10]) | Erythromycin MIC during combined treatment with peptide (MDRAB 12035; [11]) | Linezolid MIC during combined treatment with peptide (MDRAB 12035; [11]) | Vancomycin MIC during combined treatment with peptide (MDRAB 12035; [11]) | Erythromycin MIC during combined treatment with peptide (MDRAB 12035; [12]) | Linezolid MIC during combined treatment with peptide (MDRAB 12035; [12]) | Vancomycin MIC during combined treatment with peptide (MDRAB 12035; [12])
>128 µg/mL: Minimal inhibitory concentration MIC (B. subtilis) | Minimal inhibitory concentration MIC (S. epidermidis) | Minimal inhibitory concentration MIC (S. aureus) | Minimal inhibitory concentration MIC (MRSA 3114) | Minimal inhibitory concentration MIC (MRSA 3126) | Antibiotic MIC, Linezolid (E. coli [3]; linezolid combined with peptide at 1 μg/ml) | Antibiotic MIC, Vancomycin (E. coli [3]; vancomycin combined with peptide at 1 μg/ml) | Antibiotic MIC, Linezolid (MDREC 1229 [4]; [5]) | Antibiotic MIC, Vancomycin (MDREC 1229 [4]; [5]) | Antibiotic MIC, Vancomycin (MDREC 1229 [4]; [6]) | Antibiotic MIC, Vancomycin (A. baumannii; [13]) | Vancomycin MIC during combined treatment with peptide (MDRAB 12035; [5])
0.25 µg/mL: Antibiotic MIC, Erythromycin (A. baumannii; [17])
16 µg/mL: Minimal inhibitory concentration MIC (MDREC 1229 [2]) | Peptide MIC, peptide alone (MDREC 1229 [2]) | Minimal inhibitory concentration MIC (MDREC 1238) | Minimal inhibitory concentration MIC (MDRST 8007) | Antibiotic MIC, Vancomycin (E. coli [3]; vancomycin combined with peptide at 4 μg/ml) | Antibiotic MIC, Linezolid (MDREC 1229 [4]; [8]) | Antibiotic MIC, Linezolid (MDREC 1229 [4]; [9]) | Antibiotic MIC, Erythromycin (A. baumannii; [13]) | Erythromycin MIC during combined treatment with peptide (MDRAB 12035; [5]) | Linezolid MIC during combined treatment with peptide (MDRAB 12035; [7]) | Vancomycin MIC during combined treatment with peptide (MDRAB 12035; [7])
4 µg/mL: Antibiotic MIC, Erythromycin (MDREC 1229 [4]; [8]) | Erythromycin MIC during combined treatment with peptide (MDRAB 12035; [7]) | Linezolid MIC during combined treatment with peptide (MDRAB 12035; [8]) | Vancomycin MIC during combined treatment with peptide (MDRAB 12035; [8])
higher level than the PapMA-1 peptide: Synergistic effect of antibacterial activity with existing antibiotics compared with PapMA-1 (E. coli [3]; E. coli and MDREC1229) | Synergistic effect of antibacterial activity with existing antibiotics compared with PapMA-1 (A. baumannii; A. baumannii and MDRAB 12035)
8 µg/mL: Minimal inhibitory concentration MIC (E. coli [1]) | Antibiotic MIC, Linezolid (E. coli [3]; linezolid combined with peptide at 4 μg/ml) | Antibiotic MIC, Vancomycin (E. coli [3]; vancomycin combined with peptide at 6 μg/ml) | Antibiotic MIC, Erythromycin (MDREC 1229 [4]; [7]) | Antibiotic MIC, Vancomycin (MDREC 1229 [4]; [9]) | Antibiotic MIC, Erythromycin (A. baumannii; [14]) | Antibiotic MIC, Linezolid (A. baumannii; [15]) | Antibiotic MIC, Vancomycin (A. baumannii; [15]) | Erythromycin MIC during combined treatment with peptide (MDRAB 12035; [6])
64 µg/mL: Minimal inhibitory concentration MIC (P. aeruginosa) | Minimal inhibitory concentration MIC (MDRPA 2002) | Minimal inhibitory concentration MIC (MDRPA 2003) | Antibiotic MIC, Vancomycin (A. baumannii; [14]) | Linezolid MIC during combined treatment with peptide (MDRAB 12035; [6]) | Vancomycin MIC during combined treatment with peptide (MDRAB 12035; [6])
